Results taken from ChEMBL document CHEMBL1134937, “Indoline and piperazine containing derivatives as a novel class of mixed D(2)/D(4) receptor antagonists. Part 2: asymmetric synthesis and biological evaluation” (Bioorg Med Chem Lett, 2002).

Assays:
[1] = biological target: T1, Adrenergic receptor alpha-1 (Rattus norvegicus, UniProt P15823+P23944+P43140); assay: Binding affinity towards Alpha-1 adrenergic receptor was determined by competitive displacement assays using rat brain homogenate with [3H]prazosin as the competitive ligand; format: tissue-based
T1 sequence (P15823 whole entry): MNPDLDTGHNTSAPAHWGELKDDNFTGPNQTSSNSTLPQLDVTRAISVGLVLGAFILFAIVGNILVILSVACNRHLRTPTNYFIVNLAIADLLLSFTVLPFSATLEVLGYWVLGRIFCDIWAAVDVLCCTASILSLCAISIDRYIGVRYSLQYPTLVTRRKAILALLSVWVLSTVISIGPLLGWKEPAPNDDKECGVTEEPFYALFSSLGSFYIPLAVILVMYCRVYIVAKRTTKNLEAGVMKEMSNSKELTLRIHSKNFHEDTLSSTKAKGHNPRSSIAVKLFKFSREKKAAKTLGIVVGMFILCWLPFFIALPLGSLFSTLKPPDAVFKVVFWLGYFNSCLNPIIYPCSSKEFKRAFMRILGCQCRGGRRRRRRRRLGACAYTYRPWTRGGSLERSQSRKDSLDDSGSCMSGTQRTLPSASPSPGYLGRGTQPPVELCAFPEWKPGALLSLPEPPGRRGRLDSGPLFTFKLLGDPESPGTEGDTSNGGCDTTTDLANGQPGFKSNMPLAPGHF
T1 sequence (P23944 whole entry): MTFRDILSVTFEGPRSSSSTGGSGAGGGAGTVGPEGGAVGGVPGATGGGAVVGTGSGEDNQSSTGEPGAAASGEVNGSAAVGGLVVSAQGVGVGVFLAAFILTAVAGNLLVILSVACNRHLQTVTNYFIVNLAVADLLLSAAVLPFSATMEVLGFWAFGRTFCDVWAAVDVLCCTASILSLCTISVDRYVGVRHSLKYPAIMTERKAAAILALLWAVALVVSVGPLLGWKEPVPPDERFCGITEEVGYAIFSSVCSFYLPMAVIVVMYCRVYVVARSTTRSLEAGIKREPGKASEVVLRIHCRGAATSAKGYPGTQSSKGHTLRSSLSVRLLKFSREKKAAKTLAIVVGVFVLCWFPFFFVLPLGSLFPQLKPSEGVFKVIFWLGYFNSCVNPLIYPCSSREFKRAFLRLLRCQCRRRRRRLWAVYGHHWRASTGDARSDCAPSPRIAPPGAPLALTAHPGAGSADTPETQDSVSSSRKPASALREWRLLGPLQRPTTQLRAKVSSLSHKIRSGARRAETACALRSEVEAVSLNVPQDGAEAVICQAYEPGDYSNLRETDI
T1 sequence (P43140 whole entry): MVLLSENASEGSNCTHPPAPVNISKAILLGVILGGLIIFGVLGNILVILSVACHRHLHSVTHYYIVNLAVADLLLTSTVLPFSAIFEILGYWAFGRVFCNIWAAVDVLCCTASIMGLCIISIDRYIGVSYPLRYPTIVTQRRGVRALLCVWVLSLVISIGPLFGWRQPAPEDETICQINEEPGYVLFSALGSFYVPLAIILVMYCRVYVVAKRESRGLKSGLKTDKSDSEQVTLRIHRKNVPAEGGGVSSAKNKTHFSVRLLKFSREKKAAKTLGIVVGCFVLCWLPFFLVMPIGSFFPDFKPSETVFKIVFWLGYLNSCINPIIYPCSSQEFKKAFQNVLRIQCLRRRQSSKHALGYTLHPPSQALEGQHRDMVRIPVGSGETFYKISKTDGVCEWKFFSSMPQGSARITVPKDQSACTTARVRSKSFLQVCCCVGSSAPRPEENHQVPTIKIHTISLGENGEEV

D(4) dopamine receptor = biological target: T2, D(4) dopamine receptor (Homo sapiens, UniProt P21917)
T2 sequence (P21917 whole entry): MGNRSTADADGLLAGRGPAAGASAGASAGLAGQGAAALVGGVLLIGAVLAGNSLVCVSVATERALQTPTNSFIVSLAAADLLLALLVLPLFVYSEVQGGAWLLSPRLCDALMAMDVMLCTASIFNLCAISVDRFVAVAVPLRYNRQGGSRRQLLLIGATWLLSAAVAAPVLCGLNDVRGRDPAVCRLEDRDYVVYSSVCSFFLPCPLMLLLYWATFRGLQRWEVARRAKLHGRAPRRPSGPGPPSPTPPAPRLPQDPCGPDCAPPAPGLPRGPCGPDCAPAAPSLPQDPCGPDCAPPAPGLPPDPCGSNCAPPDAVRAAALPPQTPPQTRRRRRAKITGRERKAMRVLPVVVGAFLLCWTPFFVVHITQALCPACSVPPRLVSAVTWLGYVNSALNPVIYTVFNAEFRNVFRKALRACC
Description: Binding affinity towards Dopamine type 4 receptor was determined by competitive displacement assays using [3H]-YM 09151 as the competitive ligand

Rattus norvegicus [2] = assay: Minimum effective dose required for significant dose dependent reduction of amphetamine-induced locomotor activity in male Sprague-Dawley rats on subcutaneous administration (30 min prior to receiving amphetamine 0.5 mg/kg); format: functional; conditions: sc, read-out: MED
Rattus norvegicus [3] = species on record: Rattus norvegicus; assay: Minimum effective dose required in the catalepsy experiment in rats; showed no significant effect at this dose; format: functional; conditions: read-out: MED
Rattus norvegicus [4] = species on record: Rattus norvegicus; assay: Minimum effective dose required in the catalepsy experiment in rats; format: functional; conditions: read-out: MED

Row | SMILES | Ki [1] | Ki (D(4) dopamine receptor) | minimal effective dose (Rattus norvegicus [2]) | minimal effective dose (Rattus norvegicus [3]) | minimal effective dose (Rattus norvegicus [4])
1 | C[C@@H]1Cc2ccccc2N1C(=O)CN1CCN(Cc2cc(F)c(Cl)cc2F)CC1 | > 10000 nM | 6 nM | – | – | –
2 | COc1ccc(Cl)cc1CN1CCN(CC(=O)N2c3ccccc3C[C@H]2C)CC1 | 980 nM | 5 nM | – | – | –
3 | C[C@@H]1Cc2ccccc2N1C(=O)CN1CCN(Cc2cccc(F)c2)CC1 | – | 6 nM | – | – | –
4 | COC(=O)[C@@H]1Cc2ccccc2N1C(=O)CN1CCN(Cc2ccc(C)cc2)CC1 | 100 nM | 8 nM | – | – | –
5 | O=C(O)[C@@H]1Cc2ccccc2N1C(=O)CN1CCN(Cc2ccc(Cl)cc2)CC1 | 453 nM | 1760 nM | – | – | –
6 | COc1cc(Cl)ccc1CN1CCN(CC(=O)N2c3ccccc3C[C@H]2C)CC1 | 1060 nM | 3 nM | > 4 mg/kg | – | –
7 | COC(=O)[C@@H]1Cc2ccccc2N1C(=O)CN1CCN(Cc2ccc(Cl)cc2)CC1 | > 1000 nM | 5 nM | – | – | –
8 | O=C(NCc1ccccc1)[C@@H]1Cc2ccccc2N1C(=O)CN1CCN(Cc2ccc(Cl)cc2)CC1 | – | > 1000 nM | – | – | –
9 | CC(C)c1ccc(Cl)cc1CN1CCN(CC(=O)N2c3ccccc3C[C@H]2C)CC1 | – | 10 nM | – | – | –
10 | C[C@@H]1Cc2ccccc2N1C(=O)CN1CCN(Cc2ccc(Cl)cc2)CC1 | – | – | > 8 mg/kg | – | –
11 | C[C@@H]1Cc2ccccc2N1C(=O)CN1CCN(Cc2ccccc2F)CC1 | > 10000 nM | 27 nM | – | – | –
12 | Cc1ccc(CN2CCN(CC(=O)N3c4ccccc4C[C@H]3C)CC2)cc1F | 807 nM | 2 nM | – | – | –
13 | COc1ccc(OC)c(CN2CCN(CC(=O)N3c4ccccc4C[C@H]3C)CC2)c1 | 1660 nM | 29 nM | – | – | –
14 | C[C@@H]1Cc2ccccc2N1C(=O)CN1CCN(Cc2ccc(F)c(F)c2Cl)CC1 | > 1000 nM | 12 nM | – | – | –
15 | Cc1ccc(CN2CCN(CC(=O)N3c4ccccc4C[C@H]3C)CC2)cc1 | – | – | > 4 mg/kg | – | –
16 | CC[C@@H]1Cc2ccccc2N1C(=O)CN1CCN(Cc2ccc(C)cc2)CC1 | 1330 nM | 3 nM | – | – | –
17 | C[C@@H]1Cc2ccccc2N1C(=O)CN1CCN(Cc2ccc3c(c2)OCO3)CC1 | 1130 nM | 3 nM | – | – | –
18 | CCOc1ccc(Cl)cc1CN1CCN(CC(=O)N2c3ccccc3C[C@H]2C)CC1 | 1090 nM | 11 nM | – | – | –
19 | C=C[C@@H]1Cc2ccccc2N1C(=O)CN1CCN(Cc2ccc(Cl)cc2)CC1 | 2180 nM | – | – | – | –
20 | CN1CCN(C2=Nc3cc(Cl)ccc3Nc3ccccc32)CC1 [CLOZAPINE] | – | – | 1 mg/kg | > 40 mg/kg | –
21 | O=C(CCCN1CCC(O)(c2ccc(Cl)cc2)CC1)c1ccc(F)cc1 [HALOPERIDOL] | – | – | 0.06 mg/kg | – | 0.5 mg/kg
